In publication PMC9737981, “Molecular Hybridization Strategy on the Design, Synthesis, and Structural Characterization of Ferrocene-N-acyl Hydrazones as Immunomodulatory Agents” (Molecules, 2022):

How the values were obtained:
[1] = tested on: J774 macrophages; assay: Cytotoxicity to J774 macrophages (Alamar Blue); type: cell-based; conditions: 72 h, read-out: CC50 (µM) JJ74
Procedure: J774 macrophages were seeded into 96-well plates at a cell density of 1 × 10^4 cells/well in a DMEM medium supplemented with 10% fetal bovine serum (FBS; GIBCO) and 50 µg/mL of gentamicin (Life Technologies, Carlsbad, CA, USA) and incubated for 24 h at 37 °C and 5% CO2. After that time, each compound was added in six concentrations (50–1.56 µM), in triplicate, and incubated for 72 h. At the end of treatment, 20 µL/well of Alamar Blue (Invitrogen) was added to the plates for 4 h. […]
As a positive control, gentian violet was used at concentrations ranging from 0.04 to 10 µM. CC50 values were calculated using data from three independent experiments.
To determine the cytotoxicity concentration of 50% of J774 macrophages (CC50), we used non-linear regression. One-way analysis of variance and Newman–Keuls multiple comparison tests were employed by using Graph Pad Prism version 8.0.1 (Graph Pad Software; San Diego, CA, USA). Differences were considered significant when the values of p were < 0.05. The data are representative of at least two or three experiments.

[2] = tested on: nitric oxide production; assay: Inhibition of nitric oxide (nitrite) production in J774 macrophages stimulated with LPS + IFN-γ (Griess); type: cell-based; conditions: for Inhibition of NO (%) Production at 40 μM: 24 h incubation with compounds and LPS plus IFN-γ
Procedure: (§1) Immortalized J774 macrophages (2 × 10^5 cells/well) or peritoneal macrophages (2 × 10^5 cells/well) were incubated in 96-well plates in a DMEM medium supplemented with 10% FBS and 50 µg/mL of gentamicin, in triplicate, stimulated or not with LPS (500 ng/mL) and IFN-γ (5 ng/mL), and treated or not with different concentrations of the evaluated ferrocenyl-N-acyl hydrazones. The cells were incubated for 4 or 24 h at 37 °C and 5% CO2. Cell-free supernatants were collected after 4 h (for TNFα measurement) and 24 h (for IL-1β, TNFα, and nitrite quantifications), and kept at −80 °C until use.
(§2) The dosage of cytokines IFN-γ, IL-1β, IL-2, IL-4, and TNFα was performed from the supernatant of peritoneal macrophages or splenocytes were determined by enzyme-linked immunosorbent assay (ELISA), using DuoSet kits from R&D Systems, according to the manufacturer’s instructions. Nitric oxide production was estimated in macrophage culture supernatants harvested at 24 h using the Griess method for nitrite quantification.

[3] = tested on: IL-2; assay: IL-2 production by splenocytes stimulated with concanavalin A (ELISA); type: cell-based, BALB/c mice; conditions: Con A 5 µg/mL, 24 h
Procedure: (§3) BALB/c splenocyte suspensions were prepared in a DMEM medium supplemented with FBS and gentamicin. Splenocytes (5 × 10^6 cells/well) were plated in 24-well plates, in triplicate, and stimulated or not with concanavalin A (Con A; 5 µg/mL, Sigma-Aldrich). To evaluate lymphocyte function, splenocytes were activated in the absence or presence of various concentrations of SintMed149 and SintMed150 (10, 20, and 40 µM). After 24 h of treatment, cell-free supernatants were collected and kept at −80 °C until use.
as §2

[4] = tested on: IFN-γ; assay: IFN-γ production by splenocytes stimulated with concanavalin A (ELISA); type: cell-based, BALB/c mice; conditions: 10 µM; Con A 5 µg/mL; 24 h
Procedure: as §3, §2

[5] = tested on: carrageenan-induced acute peritonitis; assay: Carrageenan-induced acute peritonitis (neutrophil migration); type: in vivo, BALB/c mice; conditions: 25 mg/kg; compared to vehicle
Procedure: Next, animals were challenged with a 250 μL injection of carrageenan (1 mg/mL; intraperitoneal route). After 4 h, animals were euthanized and peritoneal exudates were harvested by peritoneal lavage using 2.5 mL of saline solution. Cells were centrifuged at 400× g for 10 min, at 4 °C. The pellet was resuspended in saline (1 mL). Total leukocytes in the peritoneal fluid were determined in a Neubauer chamber after dilution in Trypan blue stain. Differential counting of neutrophils was carried out in rapid panotype-stained cytospin preparations. A differential count of 300 cells was made in a blinded fashion and according to standard morphologic criteria.

[6] = tested on: peritoneal macrophages; assay: Cytotoxicity to peritoneal macrophages activated with LPS + IFNγ (Alamar Blue); type: cell-based, BALB/c mice
Procedure: The second set of experiments was performed using peritoneal macrophages activated with LPS (500 ng/mL, Sigma-Aldrich) and IFNγ (5 ng/mL; Sigma-Aldrich).
Peritoneal exudate macrophages were obtained by washing, with a cold DMEM medium, the peritoneal cavity of BALB/c mice 4–5 days after injection of 3% thioglycolate (Sigma-Aldrich) in saline (1.5 mL per mouse). Cells were seeded into 96-well plates at a cell density of 1 × 10^5 cells/well in a DMEM medium supplemented with 10% FBS and 50 µg/mL of gentamicin and incubated for 24 h at 37 °C and 5% CO2. […] At the end of treatment, 20 µL/well of Alamar Blue (Invitrogen) were added to the plates for 10 h. Colorimetric readings were performed at 570 and 600 nm using a SpectraMax 190 Microplate Reader (Molecular Devices, Sunnyvale, CA, USA).

[7] = tested on: IL-4; assay: IL-4 production by splenocytes stimulated with concanavalin A (ELISA); type: cell-based, BALB/c mice; conditions: Con A 5 µg/mL, 24 h
Procedure: as §3, §2

[8] = tested on: IL-1β; assay: IL-1β production by peritoneal macrophages stimulated with LPS + IFN-γ (ELISA); type: cell-based, BALB/c mice
Procedure: as §1, §2

[9] = tested on: nitrite production; assay: Nitrite production by activated peritoneal macrophages (Griess); type: cell-based, BALB/c mice; conditions: LPS + IFN-γ
Procedure: as §1, §2

[10] = tested on: TNFα; assay: TNFα production by peritoneal macrophages stimulated with LPS + IFN-γ (ELISA); type: cell-based, BALB/c mice
Procedure: as §1, §2

[11] = tested on: LPS-induced endotoxic shock; assay: LPS-induced endotoxin shock (survival); type: in vivo, BALB/c mice; conditions: 25 mg/kg, lethal LPS, monitored 4 days
Procedure: Groups of five male BALB/c mice (4 weeks of age) were used for the LPS lethality assays. Mice were treated with different doses of SintMed150 (50 or 100 mg/kg), dexamethasone (25 mg/kg), or vehicle (solution containing 30% sorbitol, 10% Tween 80, and 60% saline), by intraperitoneal (i.p.) route. Ninety minutes later, animals were challenged with 600 µg of LPS (from serotype 0111:B4 Escherichia coli, Sigma-Aldrich) in saline, by i.p. route. The survival rate was then monitored daily during 4 days.

Compound	CC50 [1] [µM]	Inhibition of NO (%) Production at 40 μM [2]	other results
O=C(N/N=C/[c-]1cccc1)c1ccccc1.[Fe+2].c1cc[cH-]c1 [SintMed141, (E)-N′-(Ferrocenylmethylidene)benzohydrazide]	> 50	19.7 (±3.0) %	
Cc1ccccc1C(=O)N/N=C/[c-]1cccc1.[Fe+2].c1cc[cH-]c1 [SintMed148, (E)-N′-(Ferrocenylmethylidene)-2-methylbenzohydrazide]	> 50	56.6 (±2.1) %	
O=C(N/N=C/[c-]1cccc1)c1ccc(C(F)(F)F)cc1.[Fe+2].c1cc[cH-]c1 [SintMed147, (E)-N′-(Ferrocenylmethylidene)-4-(trifluoromethyl)benzohydrazide]	> 50	59.9 (±0.3) %	
O=C(N/N=C/[c-]1cccc1)c1ccc2ccccc2n1.[Fe+2].c1cc[cH-]c1 [SintMed145, (E)-N′-(Ferrocenylmethylidene)quinolin-2-ylcarbohydrazide]	> 50	49.6 (±2.6) %	
O=C(N/N=C/[c-]1cccc1)c1cccc2ccccc12.[Fe+2].c1cc[cH-]c1 [SintMed155, (E)-N′-(Ferrocenylmethylidene)-1-naphtylcarbohydrazide]	> 50	35.6 (±0.7) %	
COc1cc(C(=O)N/N=C/[c-]2cccc2)cc(OC)c1OC.[Fe+2].c1cc[cH-]c1 [SintMed152, (E)-N′-(Ferrocenylmethylidene)-3,4,5-trimethoxybenzohydrazide]	> 50	55.5 (±1.7) %	
O=C(N/N=C/[c-]1cccc1)c1ccccc1Cl.[Fe+2].c1cc[cH-]c1 [SintMed142, (E)-N′-(Ferrocenylmethylidene)-2-chlorobenzohydrazide]	> 50	49.3 (±0.8) %	
N#Cc1ccc(C(=O)N/N=C/[c-]2cccc2)cc1.[Fe+2].c1cc[cH-]c1 [SintMed144, (E)-N′-(Ferrocenylmethylidene)-4-cyanobenzohydrazide]	> 50	55.2 (±0.6) %	
COc1cc(C(=O)N/N=C/[c-]2cccc2)cc(OC)c1OC.[Fe+2].c1cc[cH-]c1 [SintMed153, (E)-N′-(Ferrocenylmethylidene)-3,4,5-trimethoxybenzohydrazide]	> 50	43.7 (±3.3) %	
O=C(N/N=C/[c-]1cccc1)c1cccc(Cl)c1.[Fe+2].c1cc[cH-]c1 [SintMed154, (E)-N′-(Ferrocenylmethylidene)-3-chlorobenzohydrazide]	> 50	45.2 (±2.1) %	
CC(C)(C)c1cc(C(=O)N/N=C/[c-]2cccc2)cc(C(C)(C)C)c1O.[Fe+2].c1cc[cH-]c1 [SintMed146, (E)-N′-(Ferrocenylmethylidene)-3,5-tert-butyl-4-hydroxybenzohydrazide]	> 50	14.4 (±2.2) %	
O=C(N/N=C/[c-]1cccc1)c1cc(O)c(O)c(O)c1.[Fe+2].c1cc[cH-]c1 [SintMed151, (E)-N′-(Ferrocenylmethylidene)-3,4,5-trihydroxybenzohydrazide]	> 50	25.2 (±2.1) %	
C[C@@H]1C[C@H]2[C@@H]3CCC4=CC(=O)C=C[C@]4(C)[C@@]3(F)[C@@H](O)C[C@]2(C)[C@@]1(O)C(=O)CO [Dexamethasone, reference compound]			IL-2 levels ([3]; 10 µM): significantly reduced; IFN-γ levels [4]: significantly reduced; Reduction in neutrophil migration [5]: 55%; Cytotoxicity (cell viability) in peritoneal macrophages ([6]; 40 µM): not cytotoxic; IL-4 levels ([7]; 10 µM): significantly reduced; IL-1β production ([8]; 10 µM): promoted the reduction; Nitrite production ([9]; 10 µM): promoted the reduction; TNF production ([10]; 10 µM): promoted the reduction; inhibition at 40 µM ([2]; Mus musculus, J774, 24 h incubation with compounds and LPS plus IFN-γ, read-out: Inhibition of NO (%) Production at 40 μM): 64.9%; Survival rate [11]: 83.3%
O=C(N/N=C/[c-]1cccc1)c1ccco1.[Fe+2].c1cc[cH-]c1 [SintMed143, (E)-N′-(Ferrocenylmethylidene)furan-2-ylcarbohydrazide]	> 50	49.2 (±1.9) %	
O=C(N/N=C/[c-]1cccc1)c1ccccc1Br.[Fe+2].c1cc[cH-]c1 [SintMed149, (E)-N′-(Ferrocenylmethylidene)-2-bromobenzohydrazide]	> 50	71.7 (±3.6) %	IL-2 levels ([3]; 10, 20, 40 µM): significant and concentration-dependent reduction; Cytotoxicity (cell viability) in peritoneal macrophages ([6]; all concentrations tested (10, 20, 40 µM)): not cytotoxic; IL-4 levels ([7]; 10, 20, 40 µM): did not significantly reduce; IL-1β production ([8]; 10, 20 and 40 µM, 24 h, p < 0.05): inhibitory effect; Nitrite production ([9]; 10, 20 and 40 µM, p < 0.05): inhibited, in a concentration-dependent manner; TNF production ([10]; 10, 20 and 40 µM, 4 h, p < 0.05): inhibitory effect
COc1ccc(C(=O)N/N=C/[c-]2cccc2)c(OC)c1.[Fe+2].c1cc[cH-]c1 [SintMed156, (E)-N′-(Ferrocenylmethylidene)-2,4-dimethoxybenzohydrazide]	> 50	46.7 (±3.0) %	
